Values quoted from earlier work, collected in US5763196A, “Assays using cross-linked polypeptide fragments of β-galactosidase” (priority 1996, dated 1998).

Test system: interleukin-1-β converting enzyme (ICE protease)

Compound | inhibition of ICE protease (in words) (Nature 375:78-81 (1995)) | minimal and best peptide substrate found to date (Thornberry, Nature 356:768-74 (1992))
CC(=O)N[C@@H](Cc1ccc(O)cc1)C(=O)N[C@H](C(=O)N[C@@H](C)C(=O)N[C@@H](CC(=O)O)C(=O)CCl)C(C)C [Ac-Tyr-Val-Ala-Asp-*] | potent inhibitor | 
CNC(=O)[C@H](CC(=O)O)NC(=O)[C@H](C)NC(=O)[C@@H](NC(=O)[C@H](Cc1ccc(O)cc1)NC(C)=O)C(C)C [Ac-Tyr-Val-Ala-Asp-NH-CH3] |  | minimal and best peptide substrate
